These results are taken from the supplement of paper PMC10307832.

Holding throughout (experiment): relative viability (nuclei count vs DMSO), 5 days (fraction); higher = more cells survive
Compound in experiment [1]: CC(C)C[C@H](NC(=O)[C@H](Cc1ccccc1)NC(=O)c1cnccn1)B(O)O [Bortezomib] + Cc1nc(NC(=O)N2CCC[C@H]2C(N)=O)sc1-c1ccnc(C(C)(C)C(F)(F)F)c1 [Alpelisib] (partner 2 µM)
The procedure, abridged:
(§1)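 Five library-drug doses in √10 steps were combined with a fixed anchor-drug dose, or a single drug was given alone, by pin tool to lung cancer cell lines in 1536-well plates the day after seeding. Nuclei were stained and counted after 5 days. Relative viability is the nuclei count in treated wells over that in vehicle wells, taken as the median of duplicate plates.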

Compound in experiment [2]: CC1=CC(=NN1)NC2=CC(=NC(=N2)/C=C/C3=CC=CC=C3)N4CCN(CC4)C + NC(=O)Nc1cc(-c2cccc(F)c2)sc1C(=O)N[C@H]1CCCNC1 [AZD7762] (partner 0.2 µM)
The procedure, abridged: as §1

Compound in experiment [3]: COC1=CC(c2cc3ccccc3[nH]2)=N/C1=C\c1[nH]c(C)cc1C [Obatoclax] + CCNC(=O)c1noc(-c2cc(C(C)C)c(O)cc2O)c1-c1ccc(CN2CCOCC2)cc1 [Luminespib] (partner 0.01 µM)
An outline of the steps: as §1

Compound in experiment [4]: CC1=CC(=NN1)NC2=CC(=NC(=N2)/C=C/C3=CC=CC=C3)N4CCN(CC4)C + CC(=O)Nc1cccc(-n2c(=O)n(C3CC3)c(=O)c3c(Nc4ccc(I)cc4F)n(C)c(=O)c(C)c32)c1 [Trametinib] (partner 0.02 µM)
An outline of the steps:
as §1

On to NCI-H650, for which the relative viability was 1.18 in experiment [1] (first compound 0.000632 µM); 0.819 in experiment [1] (first compound 0.002 µM); 0.355 in experiment [1] (first compound 0.006325 µM); 0.182 in experiment [1] (first compound 0.02 µM); 1.26 in experiment [2] (first compound 0.08 µM); 1.02 in experiment [2] (first compound 0.253 µM). Moreover, the relative viability in experiment [2] (first compound 0.8 µM) is 1.29; in experiment [2] (first compound 2.53 µM), 0.736; in experiment [2] (first compound 8 µM), 0.187; in experiment [3] (first compound 0.01 µM) it was 0.712; in experiment [3] (first compound 0.03162 µM), 0.802; in experiment [3] (first compound 0.3162 µM), 0.44. The relative viability in experiment [3] (first compound 1 µM) turned out to be 0.305; in experiment [4] (first compound 0.08 µM) it was 0.891; in experiment [4] (first compound 0.253 µM) it was 0.706; in experiment [4] (first compound 0.8 µM) it was 0.907; in experiment [4] (first compound 2.53 µM), 0.627; in experiment [4] (first compound 8 µM), 0.166.
